Consider 2 compounds from patent EP2875815A1, “N'-(2-(3-oxobenzo[d]isothiazol-2(3h)-yl)acetyl)adamantane-1-carbohydrazide as a novel inhibitor for staphylococcus aureus sortase a” (Latvian Biomedical Research and Study Centre, priority 2013, dated 2015).

Assay [1] concerns NIH/3T3 cells. Nature of the assay: Cytotoxicity (MTT cell growth inhibition) test. Type of assay: cell-based. Conditions: Mus musculus, read-out: 50% NIH/3T3 cell growth inhibition concentration, (IC50). Here is the method:
(§1) These assays included determination of 50% SrtA inhibition concentration (IC50) of the newly synthesized derivative in dose-response experiments using the recombinant sortase A enzyme incubated with FRET peptide substrate containing the LPETG motif, minimal inhibitory concentration (MIC) test with two staphylococcal species to measure the antimicrobial efficacy of the new inhibitory molecule, and toxicity test using a normal mouse embryonic fibroblasts cell line NIH/3T3 to determine the cell growth IC50 inhibitory concentration.
The growth inhibitory effect of the newly synthesized compound was studied on NIH/3T3mouse fibroblast cell line. NIH/3T3 cells were seeded into 96-well microplates with initial density of 1x10^4 cells per well in DMEM culture medium with 10% FCS. After 24 hours of incubation, cells were exposed to a graded series of concentrations of chemical compounds for additional 48 hours. The cell medium was removed and 100 µl of fresh culture medium without phenol red and 1 mM MTT solution was added to each well. After 3 hours of incubation, an equal volume of 1% SDS-HCl solution was added and plates were incubated for additional 4 hours. Absorbance was measured at 570 nm and the data were fitted to a four parameter variable slope equation to determine the IC50 value. […]

The test system of assay [2] is S. epidermidis. As to the kind of experiment: MIC test, broth dilution micromethod. Format: cell-based. Particulars: Staphylococcus epidermidis; 24 hours at 37 °C, complete inhibition of cell growth. Here is the method:
as §1
(§2) The MIC values of test compounds that inhibited cell growth of Gram-positive Staphylococcus aureus and S. epidermidis were determined by broth dilution micromethod. A series of solutions with a range from 0.1 µg/ml to 400 µg/ml were made in using a logarithmical phase culture with OD600 = 0.1 (corresponds to ∼1.2 x 10^8 CFU/ml in 96-well plate standard. The plate was incubated at 37 °C for 24 hours and growth was assayed with a microplate reader by monitoring the absorption at 600 nm. All experiments were done in triplicate, and repeated three times.

The test system of assay [3] is Staphylococcus aureus. Nature of the assay: MIC test, broth dilution micromethod. Format: cell-based. Conditions: for MIC: Staphylococcus aureus, 24 hours at 37 °C, complete inhibition of cell growth, read-out: MIC, S.aureus. As for the experimental part:
as §1, §2

Assay [4] has as its target T1, S. aureus sortase A (Staphylococcus aureus, UniProt Q2FV99).
T1 construct: expressed with an N-terminal deletion of 59 amino acid residues (SrtAΔNS9, residues 60-206); made in house
As to the kind of experiment: SrtA enzyme FRET inhibition assay (recombinant sortase A, FRET peptide substrate with LPETG motif). Particulars: SrtA inhib. concentration, means ±SD (n = 5). Format: biochemical.
Source text: The catalytically active recombinant sortase A enzyme used for these studies was expressed with an N-terminal deletion of 59 amino acid residues (SrtAΔNS9, residues 60-206). The first step included high-throughput screening of potent S. aereus SrtA inhibitors and selection of new antibacterial substances as sortase A inhibitors. In order to identify potent inhibitors of S. aureus sortase A, a high-throughput screening (HTS) of a diverse library of 50,000 drug-like low-molecular weight molecules was performed, which led to the identification of novel promising drug candidates.
as §1
Values are means ±SD (n = 5).

Assay [5] has as its target T2, SrtA (Staphylococcus aureus, UniProt Q2FV99).
T2 construct: expressed with an N-terminal deletion of 59 amino acid residues (SrtAΔNS9, residues 60-206); made in house
As to the kind of experiment: Binding to SrtA monitored by 2D [15N,1H]-HSQC NMR spectroscopy, with dialysis. Particulars: 0.3 mM (1.0 equivalents) inhibitor, after dialysis against NMR sample buffer. The source says: • Fig. 1 - represents the binding of a selected inhibitor N-(adamantan-1-yl)-2-(3-oxo-2,3-dihydro-1,2-benzothiazol-2-yl)acetamide to SrtA monitored by 2D [^15N,^1H]-HSQC NMR spectroscopy. (a) Spectrum of SrtA in absence of inhibitor. […] (a) SrtA active site after modification by inhibitor. The inhibitor (in cyan) and near-by side chains of SrtA are shown with sticks and labeled. Side chains are colored according to their type: hydrophobic in yellow, negatively charged in red, positively charged in blue and hydrophilic in grey. Hydrogens are omitted for clarity. […] (c) Molecular surface representation of SrtA in complex with inhibitor. It can be seen in the figure that the inhibitor occupies almost all volume of the substrate pocket, the majority of interactions are hydrophobic and hydrogen bond is at the R139.
Determination of the complex structure of selected inhibitor and sortase enzyme was performed by using the nuclear magnetic resonance (NMR) spectroscopy methods. The collected NMR data allowed to specify the structure of inhibitory complexes.
To verify that the selected inhibitor can react with a cysteine thiol (such as the SrtA active site C 184) we performed a reaction with cysteine in the NMR tube and observed the formation of a covalent adduct (Figure 2). The chemical structure of the product was verified using proton 1D and 2D NMR methods.

Values after ≈ are worked out from the molar mass of the structure shown. Like-named read-outs stand apart in the source and are kept apart here.

T1 sequence (Q2FV99 60-206): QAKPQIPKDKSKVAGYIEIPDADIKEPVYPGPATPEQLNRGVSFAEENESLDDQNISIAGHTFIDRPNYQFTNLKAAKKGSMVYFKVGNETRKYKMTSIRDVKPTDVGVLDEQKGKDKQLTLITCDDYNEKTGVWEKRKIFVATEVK
T2 sequence (Q2FV99 60-206): as above

With `O=C(Cn1sc2ccccc2c1=O)NNC(=O)C12CC3CC(CC(C3)C1)C2` [N'-(2-(3-oxobenzo[d]isothiazol-2(3H)-yl)acetyl)adamantane-1-carbohydrazide], the IC50 was 12.1 µg/mL (≈ 31.4 µM) in assay [1] (NIH3T3, 48 hours exposure, MTT, mean of three independent experiments ±SD) and 3.8 µM in assay [4]. Also, the MIC in assay [2] came out at 4 µg/mL (≈ 10.4 µM); in assay [3], 16 µg/mL (≈ 41.5 µM). Also, in assay [3] (average over S. aureus and S. epidermidis), the “MIC values of the new compound in comparison to the initial hit molecule” value is given as roughly 10 fold.
In the case of `O=C(Cn1sc2ccccc2c1=O)NC12CC3CC(CC(C3)C1)C2` [N-(adamantan-1-yl)-2-(3-oxo-2,3-dihydro-1,2-benzothiazol-2-yl)acetamide], the IC50 in assay [1] (NIH3T3, 48 h) was 1.3 µg/mL (≈ 3.8 µM); in assay [4], 6.2 µM. Also, the “binding of inhibitor to SrtA (reversibility)” value in assay [5] is recorded as “irreversibly”. The MIC in assay [2] was found to be 0.5 µg/mL (≈ 1.46 µM); in assay [3], 1 µg/mL (≈ 2.92 µM).
